Target: T1, His-MpCAPE-PDE (Marchantia polymorpha, UniProt A0A1V1FXL5)
T1 construct: gene CAPE; N-terminal PDE domain 101-479 of 1610-residue MpCAPE; 6xHis and T7 tags (pET28a); E. coli Rosetta2(DE3)pLysS host; partially purified on Ni column
Experiment: reverse-phase HPLC of AMP or GMP formed, […] nm
Format: biochemical
Conditions: 0.5 mM cGMP, 0.5 mM MgCl2, MnCl2 or FeCl2, Tris-HCl pH 8.0, 37 °C, 20 min; partially purified protein

T1 sequence (A0A1V1FXL5 entry or part of it): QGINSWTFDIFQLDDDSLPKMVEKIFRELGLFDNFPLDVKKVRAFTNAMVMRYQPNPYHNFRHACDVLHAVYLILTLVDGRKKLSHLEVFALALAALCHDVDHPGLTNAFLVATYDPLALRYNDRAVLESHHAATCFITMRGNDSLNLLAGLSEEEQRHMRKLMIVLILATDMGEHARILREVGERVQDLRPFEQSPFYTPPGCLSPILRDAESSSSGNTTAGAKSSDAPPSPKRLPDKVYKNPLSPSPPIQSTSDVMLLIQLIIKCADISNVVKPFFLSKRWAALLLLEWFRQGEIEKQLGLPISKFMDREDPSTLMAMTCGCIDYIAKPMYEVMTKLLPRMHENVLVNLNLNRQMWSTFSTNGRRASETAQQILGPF

Nc1nc2c(ncn2[C@@H]2O[C@@H]3COP(=O)(O)O[C@H]3[C@H]2O)c(=O)[nH]1 [cGMP]
reverse-phase HPLC of AMP or GMP formed, 259 nm: The result showed that His-MpCAPE-PDE hydrolyzed both cAMP and cGMP
